In patent publication US20210238136A1, “AZETIDINE DERIVATIVE, AND PRODRUG THEREOF” (DAIICHI SANKYO COMPANY, LIMITED, priority 2018, published 2021) one finds IC50 data, which are given here for 41 compounds.

Structures are written as SMILES. Structures can show the parent of a compound that is named as a salt.

The test system of the assay is activated T cells (CD4+ T cells from mouse spleen). Put plainly: 3H-thymidine uptake in activated T cells. It is filed as cell-based, mouse (C57BL/6J). The note with it: T-cell; mouse spleen CD4+ T cells activated with Dynabeads Mouse T-Activator CD3/CD28; read-out: IC50 (3H-thymidine uptake, proliferation of activated T cells). The protocol: Effect of Test Substance on ^3H-Thymidine Uptake in Activated T Cells
The effect of test substance on ^3H-thymidine uptake by activation was evaluated using T cells from mouse spleen. The spleen was removed from euthanized C57BL/6J mice, and finely sliced, then triturated on a cell strainer (40 μm mesh), and cells were collected by centrifugation. The collected splenocytes were treated with Cold lyser containing 0.17 M NH4Cl for 5 minutes to hemolytically remove red blood cells and then washed. The resulting cells were used as the splenocytes. From the splenocytes, CD4+ T cells were isolated using an EasySep Mouse CD4+ T cell isolation kit (STEMCELL Technologies Inc.). The CD4+ T cells were seeded into 96-well round-bottom plates. To the plates, test substance or Vehicle was added, and Dynabeads Mouse T-Activator CD3/CD28 (Thermo Fisher Scientific Inc.) was added, then the cells were cultured at 37° C. under 5% CO2. After 24 hours of culture, ^3H-Thymidine (PerkinElmer Inc.) diluted with medium was added to each well, then the cells were further cultured at 37° C. under 5% CO2 overnight. To measure ^3H-Thymidine uptake into the nuclei of the cells, the cells were collected into filter plates UniFilter-96 GF/B (PerkinElmer Inc.) using a FilterMate Universal Harvester (PerkinElmer Inc.). The filter plates were placed in a dryer and left still for 2 hours or more. Then, scintillation cocktail MicroScint-O (PerkinElmer Inc.) was added to the plates, and radioactivity was measured with TopCount NXT (PerkinElmer Inc.). With the radioactivity of the test substance-free group set as 100% and the radioactivity of the non-activation group as 0%, the relative value (proliferation rate, % of vehicle) of the radioactivity of each well to which test substance was added was calculated. The value of % of vehicle was incorporated into analysis software Prism (Version 5.0, GraphPad Software), the “Nonlinear Regression Log (inhibitor) vs Reaction Variable Inclination” was selected, and then sigmoid fitting with restrictions of Bottom=0 and Top=100 was performed to calculate 50% inhibitory concentration (IC50).
Turning to `N[C@@H](Cc1cccc(S(=O)(=O)N2CC(Oc3cccc(F)c3)(c3ccc(F)cc3)C2)c1)C(=O)O` [Example 1, (S)-2-Amino-3-(3-((3-(3-fluorophenoxy)-3-(4-fluorophenyl)azetidin-1-yl)sulfonyl)phenyl)propanoic acid], the IC50 was 1.2 nM.
As to `N[C@@H](Cc1cccc(S(=O)(=O)N2CC(Oc3ccccc3C(F)(F)F)(c3ccccc3)C2)c1)C(=O)O` [Example 2], the IC50 is 15 nM.
Under `N[C@@H](Cc1cccc(S(=O)(=O)N2CC(Oc3cccc(Cl)c3)(c3ccccc3)C2)c1)C(=O)O` [Example 3, (S)-2-Amino-3-(3-((3-(3-chlorophenoxy)-3-phenylazetidin-1-yl)sulfonyl)phenyl)propanoic acid] stands 3.1 nM; under `N[C@@H](Cc1cccc(S(=O)(=O)N2CC(Oc3ccccc3F)(c3ccc(F)cc3)C2)c1)C(=O)O` [Example 4, (S)-2-Amino-3-(3-((3-(2-fluorophenoxy)-3-(4-fluorophenyl)azetidin-1-yl)sulfonyl)phenyl)propanoic acid], 2.6 nM; under `N[C@@H](Cc1cccc(S(=O)(=O)N2CC(Oc3ccccc3Br)(c3ccccc3)C2)c1)C(=O)O` [Example 5, (S)-2-Amino-3-(3-((3-(2-bromophenoxy)-3-phenylazetidin-1-yl)sulfonyl)phenyl)propanoic acid], 3.2 nM.
The value for `N[C@@H](Cc1cccc(S(=O)(=O)N2CC(Oc3ccc(F)cc3)(c3ccc(F)cc3)C2)c1)C(=O)O` [Example 6, (S)-2-Amino-3-(3-((3-(4-fluorophenoxy)-3-(4-fluorophenyl)azetidin-1-yl)sulfonyl)phenyl)propanoic acid] was 1.2 nM; that for `N[C@@H](Cc1cccc(S(=O)(=O)N2CC(Oc3ccccc3Cl)(c3ccccc3)C2)c1)C(=O)O` [Example 7, (S)-2-Amino-3-(3-((3-(2-chlorophenoxy)-3-phenylazetidin-1-yl)sulfonyl)phenyl)propanoic acid] was 4.1 nM.
Under `N[C@@H](Cc1cccc(S(=O)(=O)N2CC(Oc3cccc(Br)c3)(c3ccccc3)C2)c1)C(=O)O` [Example 8, (S)-2-Amino-3-(3-((3-(3-bromophenoxy)-3-phenylazetidin-1-yl)sulfonyl)phenyl)propanoic acid] stands 3 nM; under `Cc1ccc(OC2(c3ccccc3)CN(S(=O)(=O)c3cccc(C[C@H](N)C(=O)O)c3)C2)cc1` [Example 9], 4.3 nM.
For `N[C@@H](Cc1cccc(S(=O)(=O)N2CC(Oc3ccc(F)c(F)c3)(c3ccccc3)C2)c1)C(=O)O` [Example 10, (S)-2-Amino-3-(3-((3-(3,4-difluorophenoxy)-3-phenylazetidin-1-yl)sulfonyl)phenyl)propanoic acid], the IC50 turned out to be 21 nM.
Under `N[C@@H](Cc1cccc(S(=O)(=O)N2CC(Oc3ccc(F)c(Cl)c3)(c3ccccc3)C2)c1)C(=O)O` [Example 11] stands 20 nM; under `N[C@@H](Cc1cccc(S(=O)(=O)N2CC(Oc3ccc(C(F)(F)F)cc3)(c3ccccc3)C2)c1)C(=O)O` [Example 12], 9.6 nM.
The value for `N[C@@H](Cc1cccc(S(=O)(=O)N2CC(Oc3cccc(F)c3)(c3ccccc3F)C2)c1)C(=O)O` [Example 13] was 3 nM.
Under `N[C@@H](Cc1cccc(S(=O)(=O)N2CC(Oc3ccc(F)cc3)(c3ccccc3F)C2)c1)C(=O)O` [Example 14] stands 30 nM; under `NC(=O)c1cccc(OC2(c3ccccc3)CN(S(=O)(=O)c3cccc(C[C@H](N)C(=O)O)c3)C2)c1` [Example 15], 2.9 nM; under `N[C@@H](Cc1cccc(S(=O)(=O)N2CC(Cc3ccccc3)(c3ccccc3)C2)c1)C(=O)O` [Example 16], 68 nM.
Regarding `NC(=O)c1ccc(OC2(c3ccccc3)CN(S(=O)(=O)c3cccc(C[C@H](N)C(=O)O)c3)C2)cc1` [Example 17, (S)-2-Amino-3-(3-((3-(4-carbamoylphenoxy)-3-phenylazetidin-1-yl)sulfonyl)phenyl)propanoic acid hydrochloride], the IC50 came out at 1.2 nM.
The value for `N#Cc1ccccc1OC1(c2ccccc2)CN(S(=O)(=O)c2cccc(C[C@H](N)C(=O)O)c2)C1` [Example 18, (S)-2-Amino-3-(3-((3-(2-cyanophenoxy)-3-phenylazetidin-1-yl)sulfonyl)phenyl)propanoic acid] was 2.9 nM.
With `N[C@@H](Cc1cccc(S(=O)(=O)N2CC(Oc3ccc(Br)cc3)(c3ccccc3)C2)c1)C(=O)O` [Example 19], the IC50 was found to be 3 nM.
The value for `N#Cc1cccc(OC2(c3ccccc3)CN(S(=O)(=O)c3cccc(C[C@H](N)C(=O)O)c3)C2)c1` [Example 20] was 3 nM.
Turning to `N[C@@H](Cc1cccc(S(=O)(=O)N2CC(Oc3cccc(C(F)(F)F)c3)(c3ccccc3)C2)c1)C(=O)O` [Example 21], the IC50 amounted to 2.5 nM.
For `N[C@@H](Cc1cccc(S(=O)(=O)N2CC(Oc3cccnc3)(c3ccccc3)C2)c1)C(=O)O` [Example 22], the IC50 came out at 8.7 nM.
Take `N[C@@H](Cc1cccc(S(=O)(=O)N2CC(Oc3ccncc3)(c3ccccc3)C2)c1)C(=O)O` [Example 23]: the IC50 was 16 nM.
The value for `N[C@@H](Cc1cccc(S(=O)(=O)N2CC(Oc3ccccc3)(c3ccccc3)C2)c1)C(=O)O` [Example 24] was 0.49 nM.
The value for `CC(C)(C)CC1(Oc2ccccc2)CN(S(=O)(=O)c2cccc(C[C@H](N)C(=O)O)c2)C1` [Example 25] was 92 nM; that for `N[C@@H](Cc1cccc(S(=O)(=O)N2CC(Oc3ccccc3)(c3cccc(F)c3)C2)c1)C(=O)O` [Example 26] was 2.5 nM; that for `N[C@@H](Cc1cccc(S(=O)(=O)N2CC(Oc3ccccc3)(c3ccccc3F)C2)c1)C(=O)O` [Example 27] was 2.9 nM.
Under `[2H]c1c([2H])c([2H])c(C2(Oc3cccc(F)c3)CN(S(=O)(=O)c3cccc(C[C@H](N)C(=O)O)c3)C2)c([2H])c1[2H]` [Example 28] stands 2.3 nM; under `N[C@@H](Cc1cccc(S(=O)(=O)N2CC(Oc3ccccc3)(C(F)(F)F)C2)c1)C(=O)O` [Example 29], 180 nM; under `CC1(Oc2ccccc2)CN(S(=O)(=O)c2cccc(C[C@H](N)C(=O)O)c2)C1` [Example 30], 1100 nM.
Turning to `N[C@@H](Cc1cccc(S(=O)(=O)N2CC(Oc3ccccc3)(C3CC3)C2)c1)C(=O)O` [Example 31], the IC50 stood at 210 nM.
Consider `N[C@@H](Cc1cccc(S(=O)(=O)N2CC(Oc3ccccc3)(c3nccs3)C2)c1)C(=O)O` [Example 32], for which the IC50 turned out to be 11 nM.
In the case of `N[C@@H](Cc1cccc(S(=O)(=O)N2CC(Oc3ccccc3)(c3ccccn3)C2)c1)C(=O)O` [Example 33], the IC50 is 7.8 nM.
Under `N[C@@H](Cc1cccc(S(=O)(=O)N2CC(Oc3ccccc3F)(c3ccccn3)C2)c1)C(=O)O` [Example 34] stands 19 nM; under `N[C@@H](Cc1cccc(S(=O)(=O)N2CC(Oc3cccc(F)c3)(c3ccccn3)C2)c1)C(=O)O` [Example 35], 17 nM.
In the case of `N[C@@H](Cc1cccc(S(=O)(=O)N2CC(c3ccccc3-c3ccccc3)C2)c1)C(=O)O` [Example 36], the IC50 amounted to 78 nM.
Under `Cc1ccccc1-c1ccccc1C1CN(S(=O)(=O)c2cccc(C[C@H](N)C(=O)O)c2)C1` [Example 37] stands 85 nM.
With `N[C@@H](Cc1cccc(S(=O)(=O)N2CC(Oc3ccccc3-c3ccccc3Cl)C2)c1)C(=O)O` [Example 38], the IC50 was found to be 34 nM.
The value for `N[C@@H](Cc1cccc(S(=O)(=O)N2CC(OC3CC3)(c3ccccc3)C2)c1)C(=O)O` [Example 39] was 140 nM; that for `N#Cc1ccc(OC2(c3ccccc3)CN(S(=O)(=O)c3cccc(C[C@H](N)C(=O)O)c3)C2)cc1` [Example 40] was 2.2 nM.
Under `N[C@@H](Cc1cccc(S(=O)(=O)N2CC(Oc3ccc(F)cc3)(c3ccccn3)C2)c1)C(=O)O` [Example 43] stands 8.6 nM.
